Measurements taken from paper PMC5451150 (Journal of Medicinal Chemistry, 2016).

Legend:
[1] = Intrinsic clearance in mouse liver microsomes; assay type: in vitro ADME
[2] = Plasma protein binding, mouse; assay type: in vitro ADME
[3] = Plasma protein binding, rat; assay type: in vitro ADME
[4] = Plasma protein binding, dog; assay type: in vitro ADME
[5] = Plasma protein binding, human; assay type: in vitro ADME
[6] = Rat pharmacokinetics (iv and po); assay type: in vivo; details: po 25 mg/kg, male Sprague–Dawley rats
[7] = Dog pharmacokinetics (iv and po); assay type: in vivo; details: po 5 mg/kg, male beagle dogs
EZH2 C663S = molecular target: T1, EZH2 C663S (Homo sapiens, UniProt O75530+Q15910, C663S); test: EZH2 C663S incorporated into reconstituted PRC2, potency; assay type: biochemical; details: single substitution cysteine to serine at position 663, reconstituted PRC2
T1 construct: made in house
T1 sequence (Q15910 whole entry C663S): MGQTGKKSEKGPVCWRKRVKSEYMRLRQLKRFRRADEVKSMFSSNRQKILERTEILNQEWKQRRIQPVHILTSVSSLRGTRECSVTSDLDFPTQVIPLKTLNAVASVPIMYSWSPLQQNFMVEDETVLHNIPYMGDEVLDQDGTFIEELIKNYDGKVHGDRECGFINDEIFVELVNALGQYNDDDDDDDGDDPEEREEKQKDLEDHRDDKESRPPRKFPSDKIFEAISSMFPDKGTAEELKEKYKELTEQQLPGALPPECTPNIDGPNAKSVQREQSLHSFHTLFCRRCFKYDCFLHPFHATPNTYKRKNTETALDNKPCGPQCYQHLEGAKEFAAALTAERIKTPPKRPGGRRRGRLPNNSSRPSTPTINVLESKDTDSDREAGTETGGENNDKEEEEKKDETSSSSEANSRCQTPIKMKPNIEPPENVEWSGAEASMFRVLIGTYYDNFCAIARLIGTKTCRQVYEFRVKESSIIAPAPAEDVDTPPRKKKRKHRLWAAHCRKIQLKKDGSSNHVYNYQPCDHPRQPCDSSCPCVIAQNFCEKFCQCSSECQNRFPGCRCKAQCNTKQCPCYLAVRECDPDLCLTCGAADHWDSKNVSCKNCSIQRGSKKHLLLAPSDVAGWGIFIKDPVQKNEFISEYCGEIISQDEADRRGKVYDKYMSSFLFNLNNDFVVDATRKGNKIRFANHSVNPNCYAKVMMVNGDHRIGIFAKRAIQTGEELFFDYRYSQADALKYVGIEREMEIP
T1 sequence (O75530 whole entry): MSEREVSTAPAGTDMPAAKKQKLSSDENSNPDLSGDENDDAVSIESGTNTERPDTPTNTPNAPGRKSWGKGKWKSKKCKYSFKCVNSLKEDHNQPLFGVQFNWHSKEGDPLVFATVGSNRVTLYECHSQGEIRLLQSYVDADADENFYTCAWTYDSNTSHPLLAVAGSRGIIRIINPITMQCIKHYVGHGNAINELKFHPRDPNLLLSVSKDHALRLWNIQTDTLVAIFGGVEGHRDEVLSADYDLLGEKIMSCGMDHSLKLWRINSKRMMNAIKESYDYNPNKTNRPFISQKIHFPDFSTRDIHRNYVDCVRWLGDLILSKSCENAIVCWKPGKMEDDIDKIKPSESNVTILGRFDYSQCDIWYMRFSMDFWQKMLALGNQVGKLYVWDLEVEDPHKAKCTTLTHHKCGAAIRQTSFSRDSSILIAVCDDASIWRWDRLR
T1 sequence (Q15022 whole entry partner): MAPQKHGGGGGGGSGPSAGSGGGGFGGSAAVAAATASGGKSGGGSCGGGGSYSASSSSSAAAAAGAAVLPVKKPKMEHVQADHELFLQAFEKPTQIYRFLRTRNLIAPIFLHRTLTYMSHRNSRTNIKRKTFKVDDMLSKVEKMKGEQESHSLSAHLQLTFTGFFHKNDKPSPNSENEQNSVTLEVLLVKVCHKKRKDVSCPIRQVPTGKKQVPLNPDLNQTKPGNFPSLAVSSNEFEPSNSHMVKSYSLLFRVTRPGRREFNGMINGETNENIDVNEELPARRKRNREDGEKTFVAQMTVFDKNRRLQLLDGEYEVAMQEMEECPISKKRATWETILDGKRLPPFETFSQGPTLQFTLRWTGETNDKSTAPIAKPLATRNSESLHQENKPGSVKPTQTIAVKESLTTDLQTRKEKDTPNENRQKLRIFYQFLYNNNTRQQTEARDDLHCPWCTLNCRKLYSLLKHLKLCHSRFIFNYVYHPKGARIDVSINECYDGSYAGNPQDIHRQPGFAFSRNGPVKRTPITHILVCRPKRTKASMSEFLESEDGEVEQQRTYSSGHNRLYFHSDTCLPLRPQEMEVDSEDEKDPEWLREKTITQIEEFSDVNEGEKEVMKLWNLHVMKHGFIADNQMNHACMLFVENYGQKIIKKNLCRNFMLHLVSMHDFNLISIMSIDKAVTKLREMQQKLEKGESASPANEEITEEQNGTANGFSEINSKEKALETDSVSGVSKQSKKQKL

[8] = tested on: cytochrome P450 enzymes 1A2, 2C9, 2C8, 2D6, and 3A4; test: Time-dependent inhibition (TDI) of cytochrome P450 enzymes; assay type: in vitro ADME
[9] = tested on: panel of fifty-four physiologically relevant receptors, transporters, and ion channels; test: Secondary pharmacology panel; details: at 10 μM; fifty-four targets
DNMT1 = DNMT1 (Homo sapiens, UniProt P26358); test: Methyltransferase selectivity panel: DNMT1; assay type: biochemical; details: substrate Poly dl-dC; top concentration 10 µM
DNMT3a = DNMT3a (Homo sapiens, UniProt Q9Y6K1); test: Methyltransferase selectivity panel: DNMT3a; assay type: biochemical; details: substrate Lambda DNA; top concentration 10 µM
DNMT3b = DNMT3b (Homo sapiens, UniProt Q9UBC3); test: Methyltransferase selectivity panel: DNMT3b; assay type: biochemical; details: substrate Lambda DNA; top concentration 10 µM
DOT1L = DOT1L (Homo sapiens, UniProt Q8TEK3); test: Methyltransferase selectivity panel: DOT1L; assay type: biochemical; details: substrate Nucleosomes; top concentration 10 µM
G9a = G9a (Homo sapiens, UniProt Q96KQ7); test: Methyltransferase selectivity panel: G9a; assay type: biochemical; details: substrate Histone H3 (1-21); top concentration 10 µM
GLP = GLP (Homo sapiens, UniProt Q9H9B1); test: Methyltransferase selectivity panel: GLP; assay type: biochemical; details: substrate Histone H3 (1-21); top concentration 10 µM
MLL1 = MLL1 (Homo sapiens, UniProt Q03164); test: Methyltransferase selectivity panel: MLL1; assay type: biochemical; details: substrate Nucleosomes; top concentration 10 µM
MLL2 = MLL2 (Homo sapiens, UniProt O14686); test: Methyltransferase selectivity panel: MLL2; assay type: biochemical; details: substrate Core Histone; top concentration 10 µM
MLL3 = MLL3 (Homo sapiens, UniProt Q8NEZ4); test: Methyltransferase selectivity panel: MLL3; assay type: biochemical; details: substrate Core Histone; top concentration 10 µM
MLL4 = test: Methyltransferase selectivity panel: MLL4; assay type: biochemical; details: substrate Core Histone; top concentration 10 µM
NSD1 = NSD1 (Homo sapiens, UniProt Q96L73); test: Methyltransferase selectivity panel: NSD1; assay type: biochemical; details: substrate Nucleosomes; top concentration 10 µM
NSD2 = NSD2 (Homo sapiens, UniProt O96028); test: Methyltransferase selectivity panel: NSD2; assay type: biochemical; details: substrate Nucleosomes; top concentration 10 µM
NSD2 (E1099K) = NSD2 (E1099K) (Homo sapiens, UniProt O96028, E1099K); test: Methyltransferase selectivity panel: NSD2 (E1099K); assay type: biochemical; details: substrate Nucleosomes; top concentration 10 µM
PRDM9 = PRDM9 (Homo sapiens, UniProt Q9NQV7); test: Methyltransferase selectivity panel: PRDM9; assay type: biochemical; details: substrate Histone H3; top concentration 10 µM
PRMT1 = PRMT1 (Homo sapiens, UniProt Q99873); test: Methyltransferase selectivity panel: PRMT1; assay type: biochemical; details: substrate Histone H4; top concentration 10 µM
PRMT3 = PRMT3 (Homo sapiens, UniProt O60678); test: Methyltransferase selectivity panel: PRMT3; assay type: biochemical; details: substrate Histone H4; top concentration 10 µM
PRMT4 = PRMT4 (Homo sapiens, UniProt Q86X55); test: Methyltransferase selectivity panel: PRMT4; assay type: biochemical; details: substrate Histone H3; top concentration 10 µM
Chain of PRMT4 (Q86X55 whole entry): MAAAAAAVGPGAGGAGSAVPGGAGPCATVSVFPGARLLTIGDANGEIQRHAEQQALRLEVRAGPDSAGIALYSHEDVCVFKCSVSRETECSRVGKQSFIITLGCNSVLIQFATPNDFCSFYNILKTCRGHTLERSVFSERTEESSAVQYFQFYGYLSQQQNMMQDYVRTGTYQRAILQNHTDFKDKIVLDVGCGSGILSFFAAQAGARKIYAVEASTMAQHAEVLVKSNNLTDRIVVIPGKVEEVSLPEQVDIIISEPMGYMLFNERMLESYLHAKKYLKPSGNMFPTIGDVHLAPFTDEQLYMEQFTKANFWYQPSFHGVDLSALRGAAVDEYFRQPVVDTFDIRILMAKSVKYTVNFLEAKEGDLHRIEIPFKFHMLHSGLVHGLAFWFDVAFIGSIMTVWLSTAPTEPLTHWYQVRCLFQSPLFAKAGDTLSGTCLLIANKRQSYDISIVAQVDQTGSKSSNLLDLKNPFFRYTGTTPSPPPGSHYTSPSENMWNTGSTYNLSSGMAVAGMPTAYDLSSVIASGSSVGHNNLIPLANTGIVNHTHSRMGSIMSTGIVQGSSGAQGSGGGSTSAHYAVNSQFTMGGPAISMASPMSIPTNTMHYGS

PRMT5 = PRMT5 (Homo sapiens, UniProt O14744); test: Methyltransferase selectivity panel: PRMT5; assay type: biochemical; details: substrate Histone 2A; top concentration 10 µM
PRMT8 = PRMT8 (Homo sapiens, UniProt Q9NR22); test: Methyltransferase selectivity panel: PRMT8; assay type: biochemical; details: substrate Histone H4; top concentration 10 µM
SET1B = SET1B (Homo sapiens, UniProt Q9UPS6); test: Methyltransferase selectivity panel: SET1B; assay type: biochemical; details: substrate Core Histone; top concentration 10 µM
SET8 = SET8 (Homo sapiens, UniProt Q9NQR1); test: Methyltransferase selectivity panel: SET8; assay type: biochemical; details: substrate Nucleosomes; top concentration 10 µM
SETD2 = SETD2 (Homo sapiens, UniProt Q9BYW2); test: Methyltransferase selectivity panel: SETD2; assay type: biochemical; details: substrate Histone H4; top concentration 10 µM
Chain of SETD2 (Q9BYW2 whole entry): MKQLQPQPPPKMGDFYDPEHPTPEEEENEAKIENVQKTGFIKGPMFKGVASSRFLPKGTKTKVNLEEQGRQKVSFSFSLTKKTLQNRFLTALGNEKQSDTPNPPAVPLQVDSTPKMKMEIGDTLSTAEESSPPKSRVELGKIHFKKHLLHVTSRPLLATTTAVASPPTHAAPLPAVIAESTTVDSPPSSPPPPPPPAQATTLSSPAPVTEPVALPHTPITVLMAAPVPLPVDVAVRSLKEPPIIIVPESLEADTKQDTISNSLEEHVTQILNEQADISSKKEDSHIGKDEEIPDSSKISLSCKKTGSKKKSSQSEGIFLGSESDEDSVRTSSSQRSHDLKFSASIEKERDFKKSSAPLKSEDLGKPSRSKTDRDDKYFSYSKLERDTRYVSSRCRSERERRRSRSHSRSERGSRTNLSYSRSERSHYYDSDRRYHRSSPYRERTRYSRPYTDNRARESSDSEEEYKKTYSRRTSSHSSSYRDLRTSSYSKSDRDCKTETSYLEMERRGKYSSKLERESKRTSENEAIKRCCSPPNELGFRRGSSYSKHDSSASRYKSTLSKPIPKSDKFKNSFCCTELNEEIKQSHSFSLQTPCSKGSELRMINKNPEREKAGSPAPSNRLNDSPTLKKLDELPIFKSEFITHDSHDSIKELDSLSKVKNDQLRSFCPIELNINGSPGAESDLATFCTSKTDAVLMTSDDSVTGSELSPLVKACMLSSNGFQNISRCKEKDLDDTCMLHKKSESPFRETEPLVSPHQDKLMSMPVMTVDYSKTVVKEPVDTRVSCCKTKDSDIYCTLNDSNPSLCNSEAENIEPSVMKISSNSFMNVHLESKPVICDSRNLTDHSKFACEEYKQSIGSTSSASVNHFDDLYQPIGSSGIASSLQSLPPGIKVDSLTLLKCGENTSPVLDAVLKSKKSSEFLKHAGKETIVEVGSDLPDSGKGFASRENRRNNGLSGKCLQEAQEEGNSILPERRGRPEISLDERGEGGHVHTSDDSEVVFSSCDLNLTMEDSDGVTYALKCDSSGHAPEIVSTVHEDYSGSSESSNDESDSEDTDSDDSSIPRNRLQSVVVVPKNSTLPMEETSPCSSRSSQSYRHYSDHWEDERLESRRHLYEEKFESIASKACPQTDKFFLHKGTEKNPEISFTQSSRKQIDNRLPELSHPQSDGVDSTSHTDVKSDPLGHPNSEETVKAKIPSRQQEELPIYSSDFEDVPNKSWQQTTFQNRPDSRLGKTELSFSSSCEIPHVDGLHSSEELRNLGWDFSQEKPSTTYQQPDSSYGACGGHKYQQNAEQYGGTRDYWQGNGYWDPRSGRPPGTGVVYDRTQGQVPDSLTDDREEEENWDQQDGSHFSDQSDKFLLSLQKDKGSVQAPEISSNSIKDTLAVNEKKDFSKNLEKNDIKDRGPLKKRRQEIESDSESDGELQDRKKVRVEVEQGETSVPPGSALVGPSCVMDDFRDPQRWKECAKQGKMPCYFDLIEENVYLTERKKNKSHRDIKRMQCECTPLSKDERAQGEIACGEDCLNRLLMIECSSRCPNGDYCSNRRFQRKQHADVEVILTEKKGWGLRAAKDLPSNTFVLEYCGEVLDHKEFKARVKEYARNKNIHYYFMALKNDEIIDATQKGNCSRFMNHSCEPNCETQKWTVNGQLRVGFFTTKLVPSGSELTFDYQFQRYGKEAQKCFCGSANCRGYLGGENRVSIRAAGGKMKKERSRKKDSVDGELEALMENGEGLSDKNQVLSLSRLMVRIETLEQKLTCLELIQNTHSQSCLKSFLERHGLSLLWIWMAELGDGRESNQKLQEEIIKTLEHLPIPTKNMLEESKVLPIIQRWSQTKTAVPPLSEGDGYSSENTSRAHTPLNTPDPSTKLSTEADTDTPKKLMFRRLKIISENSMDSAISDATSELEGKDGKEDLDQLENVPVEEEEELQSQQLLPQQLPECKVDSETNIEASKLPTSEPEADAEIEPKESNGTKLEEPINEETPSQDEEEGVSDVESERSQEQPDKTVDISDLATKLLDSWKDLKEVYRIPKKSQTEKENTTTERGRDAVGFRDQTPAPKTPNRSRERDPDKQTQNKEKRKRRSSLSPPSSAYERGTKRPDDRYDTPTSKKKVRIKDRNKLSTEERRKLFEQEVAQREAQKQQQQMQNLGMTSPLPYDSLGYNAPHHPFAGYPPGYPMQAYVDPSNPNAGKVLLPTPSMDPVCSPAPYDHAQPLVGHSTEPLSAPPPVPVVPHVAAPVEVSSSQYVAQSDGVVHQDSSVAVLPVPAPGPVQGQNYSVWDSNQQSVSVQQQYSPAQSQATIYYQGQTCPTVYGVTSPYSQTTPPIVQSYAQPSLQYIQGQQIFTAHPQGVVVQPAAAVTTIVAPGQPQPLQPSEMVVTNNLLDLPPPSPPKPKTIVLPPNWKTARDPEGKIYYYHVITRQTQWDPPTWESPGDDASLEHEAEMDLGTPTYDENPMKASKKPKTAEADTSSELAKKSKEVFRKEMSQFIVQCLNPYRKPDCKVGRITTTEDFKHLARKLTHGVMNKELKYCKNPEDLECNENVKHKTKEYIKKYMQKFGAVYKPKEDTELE

SMYD2 = SMYD2 (Homo sapiens, UniProt Q9NRG4); test: Methyltransferase selectivity panel: SMYD2; assay type: biochemical; details: substrate Histone H4; top concentration 10 µM
SUV39H1 = SUV39H1 (Homo sapiens, UniProt O43463); test: Methyltransferase selectivity panel: SUV39H1; assay type: biochemical; details: substrate Histone H3; top concentration 10 µM
SUV39H2 = SUV39H2 (Homo sapiens, UniProt Q9H5I1); test: Methyltransferase selectivity panel: SUV39H2; assay type: biochemical; details: substrate Histone H3; top concentration 10 µM
SUV420H1TV2 = SUV420H1TV2 (Homo sapiens, UniProt Q4FZB7); test: Methyltransferase selectivity panel: SUV420H1TV2; assay type: biochemical; details: substrate Nucleosomes; top concentration 10 µM
PRMT6 = PRMT6 (Homo sapiens, UniProt Q96LA8); details: substrate Histone H3; top concentration 10 µM
[10] = tested on: KARPAS-422 B-cell lymphoma xenograft; test: KARPAS-422 B-cell lymphoma xenograft efficacy and PK/PD in CB-17 SCID mice; details: for antitumor efficacy (in words): 160 mg/kg BID

- Clint [1]: 159 μL/min/mg protein
- microsomal CLint ([1]; mouse, liver microsomes): > 100 µL/min/mg
- PPB [2]: 97.9 % bound
- PPB [3]: 89.9 % bound
- PPB ([4]; dog plasma): 90.3 % bound
- fraction unbound ([4]; plasma, in vitro, dog, read-out: fu (fraction unbound to plasma protein)): 0.089
- PPB [5]: 92.8 % bound
- Cmax unbound (value in brackets) [6]: 593 nM
- Cmax unbound (value in brackets) [7]: 120 nM
- potency in mutated EZH2 C663S (versus EZH2) (EZH2 C663S): decreased
- time-dependent inhibition (TDI) of cytochrome P450 enzymes [8]: no time-dependent inhibition
- inhibition of any target of the panel [9]: ≤ 50%
Compound: COc1cc(C)[nH]c(=O)c1CNC(=O)c1c(C)n([C@H](C)C2CCN(CC(F)(F)F)CC2)c2ccccc12 [compound 13, (R)-N-((4-Methoxy-6-methyl-2-oxo-1,2-dihydropyridin-3-yl)methyl)-2-methyl-1-(1-(1-(2,2,2-trifluoroethyl)piperidin-4-yl)ethyl)-1H-indole-3-carboxamide]
- DNMT1 IC50 (DNMT1): no inhibition or compound activity that could not be fit to an IC50 curve
- DNMT3a IC50 (DNMT3a): no inhibition or compound activity that could not be fit to an IC50 curve
- DNMT3b IC50 (DNMT3b): no inhibition or compound activity that could not be fit to an IC50 curve
- DOT1L IC50 (DOT1L): no inhibition or compound activity that could not be fit to an IC50 curve
- G9a IC50 (G9a): no inhibition or compound activity that could not be fit to an IC50 curve
- GLP IC50 (GLP): no inhibition or compound activity that could not be fit to an IC50 curve
- MLL1 IC50 (MLL1): no inhibition or compound activity that could not be fit to an IC50 curve
- MLL2 IC50 (MLL2): no inhibition or compound activity that could not be fit to an IC50 curve
- MLL3 IC50 (MLL3): no inhibition or compound activity that could not be fit to an IC50 curve
- MLL4 IC50 (MLL4): no inhibition or compound activity that could not be fit to an IC50 curve
- NSD1 IC50 (NSD1): no inhibition or compound activity that could not be fit to an IC50 curve
- NSD2 IC50 (NSD2): no inhibition or compound activity that could not be fit to an IC50 curve
- NSD2 (E1099K) IC50 (NSD2 (E1099K)): no inhibition or compound activity that could not be fit to an IC50 curve
- PRDM9 IC50 (PRDM9): no inhibition or compound activity that could not be fit to an IC50 curve
- PRMT1 IC50 (PRMT1): no inhibition or compound activity that could not be fit to an IC50 curve
- PRMT3 IC50 (PRMT3): no inhibition or compound activity that could not be fit to an IC50 curve
- PRMT4 IC50 (PRMT4): no inhibition or compound activity that could not be fit to an IC50 curve
- PRMT5 IC50 (PRMT5): no inhibition or compound activity that could not be fit to an IC50 curve
- PRMT8 IC50 (PRMT8): no inhibition or compound activity that could not be fit to an IC50 curve
- SET1B IC50 (SET1B): no inhibition or compound activity that could not be fit to an IC50 curve
- SET8 IC50 (SET8): no inhibition or compound activity that could not be fit to an IC50 curve
- SETD2 IC50 (SETD2): no inhibition or compound activity that could not be fit to an IC50 curve
- SMYD2 IC50 (SMYD2): no inhibition or compound activity that could not be fit to an IC50 curve
- SUV39H1 IC50 (SUV39H1): no inhibition or compound activity that could not be fit to an IC50 curve
- SUV39H2 IC50 (SUV39H2): no inhibition or compound activity that could not be fit to an IC50 curve
- SUV420H1TV2 IC50 (SUV420H1TV2): no inhibition or compound activity that could not be fit to an IC50 curve
- PRMT6 IC50 (PRMT6): no inhibition or compound activity that could not be fit to an IC50 curve
- antitumor efficacy (in words) [10]: efficacious
- antitumor efficacy (in words) ([10]; listed as CPI-1205): robust antitumor effects
- time to observed tumor regression ([10]; 160 mg/kg po BID, female CB-17 SCID mice): ≤ 2 weeks
